Data: publication PMC11901902, “Design, Synthesis, and Cytotoxicity Evaluation of Novel Indolin-2-One Based Molecules on Hepatocellular Carcinoma HepG2 Cells as Protein Kinase Inhibitors” (Molecules, 2025)

System: Fas-L
Test: ELISA of Fas-L in treated HepG-2 cells
Assay type: cell-based, human
Conditions: for increase of Fas-L expression compared to untreated control: HepG-2, compound at its IC50, 24 h; for Concentration of Fas L: HepG-2, compound at its IC50, ± S.E.M, control 15.33±1.71
Description: HepG2 cells were cultured in RPMI 10% + 5%FBS penicillin/streptomycin and were incubated at a humidity 5% CO2 and maintained at 37 °C. […] HepG2 cells were cultured as a monolayer in T-25 flasks and were seeded to attain 30% confluency prior to treatment. The main 100 mM stock dissolved in DMSO was diluted with the cell culture medium in order to reach the previously determined IC50 concentration of each of the three preparations. After that, HepG2 cells were collected via trypsinization and centrifuged at 10,000 rpm. The pellet was then rinsed with PBS and lysed in RIPA lysis buffer at 4 °C for 45 min, then centrifuged at 14,000 rpm for 20 min to remove the cellular debris. Lysates were then collected and stored at […] for protein determination. The levels of p53, p21, Fas-L, Bax, Bcl-2, and caspase 3/7 were assessed using the human P53 ELISA kit (Catalog No. ABIN6962151), P21 ELISA kit (Catalog No. ABIN6966175), Human Apoptosis Ligand (FAS-L), Bax ELISA kit, Human Factor-Related. Bcl-2 ELISA kit ELISA kit, and caspase3/7 ELISA kit (Elabscience Biotechnology Co., Wuhan, Hubei, China). The procedure of the used kits was done according to the manufacturer’s instructions. Briefly, equal amounts of cell lysates were loaded and then probed with specific antibodies. The samples were measured at 450 nm in ROBONEK P2000 ELISA reader. The analysis was confirmed with three different sets of extracts. All experiments were done in triplicate (Tables S6–S9).

| Compound | increase of Fas-L expression compared to untreated control [fold] | Concentration of Fas L [pg/mL] |
| --- | --- | --- |
| O=C1Nc2ccc(Cl)cc2C1=Nc1ccc2nc[nH]c(=O)c2c1 [Compound 9, 6-(5-Chloro-2-oxo-1,2-dihydro-indol-3-ylideneamino)-3H-quinazolin-4-one] | 5.7 | 86.11 ± 8.05 |
| O=C1Nc2ccc(Cl)cc2C1=Nc1ccc(-c2nc3ccccc3c(=O)[nH]2)cc1 [Compound 20, 2-[4-(5-Chloro-2-oxo-1,2-dihydro-indol-3-ylideneamino)-phenyl]-3H-quinazolin-4-one] | 4.1 | 62.06 ± 4.62 |
